# Reference: PubChem BioAssay (NCI)
#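 Method: 48-hour compound exposure of cells in 96-well plates, five concentrations, linear interpolation of endpoints. GI50 is the concentration that inhibits growth by half. Definition used: TGI = concentration required for complete inhibition of growth.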
# Assays:
# Assay in all cases: growth of human tumour cells (NCI), 48 h
# 786-0 renal = tested on: 786-0 renal
# A498 renal = tested on: A498 renal
# A549 NSCLC = tested on: A549 NSCLC
# ACHN renal = tested on: ACHN renal
# BT-549 breast = tested on: BT-549 breast
# CAKI-1 renal = tested on: CAKI-1 renal
# CCRF-CEM leukemia = tested on: CCRF-CEM leukemia
# COLO 205 colon = tested on: COLO 205 colon
# DU-145 prostate = tested on: DU-145 prostate
# EKVX NSCLC = tested on: EKVX NSCLC
# HCC-2998 colon = tested on: HCC-2998 colon
# HCT-116 colon = tested on: HCT-116 colon
# HCT-15 colon = tested on: HCT-15 colon
# HOP-62 NSCLC = tested on: HOP-62 NSCLC
# HOP-92 NSCLC = tested on: HOP-92 NSCLC
# HS 578T breast = tested on: HS 578T breast
# HT29 colon = tested on: HT29 colon
# IGROV1 ovarian = tested on: IGROV1 ovarian
# K-562 leukemia = tested on: K-562 leukemia
# KM12 colon = tested on: KM12 colon
# LOX IMVI melanoma = tested on: LOX IMVI melanoma
# M14 melanoma = tested on: M14 melanoma
# MALME-3M melanoma = tested on: MALME-3M melanoma
# MCF7 breast = tested on: MCF7 breast
# MDA-MB-231 breast = tested on: MDA-MB-231 breast
# MDA-MB-435 = tested on: MDA-MB-435
# MOLT-4 leukemia = tested on: MOLT-4 leukemia
# NCI-H226 lung = tested on: NCI-H226 lung
# NCI-H23 lung = tested on: NCI-H23 lung
# NCI-H460 lung = tested on: NCI-H460 lung
# NCI-H522 lung = tested on: NCI-H522 lung
# NCI/ADR-RES ovarian = tested on: NCI/ADR-RES ovarian
# OVCAR-4 ovarian = tested on: OVCAR-4 ovarian
# OVCAR-5 ovarian = tested on: OVCAR-5 ovarian
# OVCAR-8 ovarian = tested on: OVCAR-8 ovarian
# PC-3 prostate = tested on: PC-3 prostate
# RPMI-8226 leukemia = tested on: RPMI-8226 leukemia
# RXF 393 renal = tested on: RXF 393 renal
# SF-268 CNS = tested on: SF-268 CNS
# SF-295 CNS = tested on: SF-295 CNS
# SF-539 CNS = tested on: SF-539 CNS
# SK-MEL-2 melanoma = tested on: SK-MEL-2 melanoma
# SK-MEL-28 melanoma = tested on: SK-MEL-28 melanoma
# SK-MEL-5 melanoma = tested on: SK-MEL-5 melanoma
# SK-OV-3 ovarian = tested on: SK-OV-3 ovarian
# SN12C renal = tested on: SN12C renal
# SNB-19 CNS = tested on: SNB-19 CNS
# SNB-75 CNS = tested on: SNB-75 CNS
# SR leukemia = tested on: SR leukemia
# SW-620 colon = tested on: SW-620 colon
# T-47D breast = tested on: T-47D breast
# TK-10 renal = tested on: TK-10 renal
# U251 CNS = tested on: U251 CNS
# UACC-257 melanoma = tested on: UACC-257 melanoma
# UACC-62 melanoma = tested on: UACC-62 melanoma
# UO-31 renal = tested on: UO-31 renal
smiles,measurement,setting,value
O=c1c2cc(-c3ccc(F)cc3F)ccc2n(Nc2ccccc2)c(=O)n1-c1cccc(C(F)(F)F)c1,GI50,786-0 renal,1860 nM
same,TGI,786-0 renal,3830 nM
same,GI50,A498 renal,358 nM
same,TGI,A498 renal,1250 nM
same,GI50,A549 NSCLC,2960 nM
same,TGI,A549 NSCLC,12700 nM
same,GI50,ACHN renal,1810 nM
same,TGI,ACHN renal,5310 nM
same,GI50,BT-549 breast,1120 nM
same,TGI,BT-549 breast,2530 nM
same,GI50,CAKI-1 renal,1510 nM
same,TGI,CAKI-1 renal,4370 nM
same,GI50,CCRF-CEM leukemia,1970 nM
same,TGI,CCRF-CEM leukemia,9760 nM
same,GI50,COLO 205 colon,1800 nM
same,TGI,COLO 205 colon,3270 nM
same,GI50,DU-145 prostate,2560 nM
same,TGI,DU-145 prostate,61700 nM
same,GI50,EKVX NSCLC,2350 nM
same,TGI,EKVX NSCLC,7910 nM
same,GI50,HCC-2998 colon,2550 nM
same,TGI,HCC-2998 colon,6840 nM
same,GI50,HCT-116 colon,1030 nM
same,TGI,HCT-116 colon,2340 nM
same,GI50,HCT-15 colon,812 nM
same,TGI,HCT-15 colon,2550 nM
same,GI50,HOP-62 NSCLC,1800 nM
same,TGI,HOP-62 NSCLC,4110 nM
same,GI50,HOP-92 NSCLC,190 nM
same,TGI,HOP-92 NSCLC,679 nM
same,GI50,HS 578T breast,1060 nM
same,TGI,HS 578T breast,4200 nM
same,GI50,HT29 colon,2840 nM
same,TGI,HT29 colon,7740 nM
same,GI50,IGROV1 ovarian,1910 nM
same,TGI,IGROV1 ovarian,13300 nM
same,GI50,K-562 leukemia,717 nM
same,TGI,K-562 leukemia,> 100000 nM
same,GI50,KM12 colon,2170 nM
same,TGI,KM12 colon,5660 nM
same,GI50,LOX IMVI melanoma,1530 nM
same,TGI,LOX IMVI melanoma,3120 nM
same,GI50,M14 melanoma,1650 nM
same,TGI,M14 melanoma,4170 nM
same,GI50,MALME-3M melanoma,1500 nM
same,TGI,MALME-3M melanoma,5050 nM
same,GI50,MCF7 breast,1810 nM
same,TGI,MCF7 breast,7440 nM
same,GI50,MDA-MB-231 breast,1780 nM
same,TGI,MDA-MB-231 breast,5620 nM
same,GI50,MDA-MB-435,1520 nM
same,TGI,MDA-MB-435,5040 nM
same,GI50,MOLT-4 leukemia,1790 nM
same,TGI,MOLT-4 leukemia,5660 nM
same,GI50,NCI-H226 lung,1320 nM
same,TGI,NCI-H226 lung,3420 nM
same,GI50,NCI-H23 lung,1060 nM
same,TGI,NCI-H23 lung,4320 nM
same,GI50,NCI-H460 lung,775 nM
same,TGI,NCI-H460 lung,4390 nM
same,GI50,NCI-H522 lung,440 nM
same,TGI,NCI-H522 lung,2410 nM
same,GI50,NCI/ADR-RES ovarian,1910 nM
same,TGI,NCI/ADR-RES ovarian,7740 nM
same,GI50,OVCAR-4 ovarian,2670 nM
same,TGI,OVCAR-4 ovarian,> 100000 nM
same,GI50,OVCAR-5 ovarian,3150 nM
same,TGI,OVCAR-5 ovarian,56300 nM
same,GI50,OVCAR-8 ovarian,1230 nM
same,TGI,OVCAR-8 ovarian,3720 nM
same,GI50,PC-3 prostate,1350 nM
same,TGI,PC-3 prostate,5190 nM
same,GI50,RPMI-8226 leukemia,460 nM
same,TGI,RPMI-8226 leukemia,2570 nM
same,GI50,RXF 393 renal,1200 nM
same,TGI,RXF 393 renal,2840 nM
same,GI50,SF-268 CNS,1700 nM
same,TGI,SF-268 CNS,7980 nM
same,GI50,SF-295 CNS,1830 nM
same,TGI,SF-295 CNS,3820 nM
same,GI50,SF-539 CNS,1570 nM
same,TGI,SF-539 CNS,5640 nM
same,GI50,SK-MEL-2 melanoma,532 nM
same,TGI,SK-MEL-2 melanoma,2100 nM
same,GI50,SK-MEL-28 melanoma,1280 nM
same,TGI,SK-MEL-28 melanoma,4690 nM
same,GI50,SK-MEL-5 melanoma,354 nM
same,TGI,SK-MEL-5 melanoma,1350 nM
same,GI50,SK-OV-3 ovarian,1270 nM
same,TGI,SK-OV-3 ovarian,3010 nM
same,GI50,SN12C renal,1000 nM
same,TGI,SN12C renal,5010 nM
same,GI50,SNB-19 CNS,931 nM
same,TGI,SNB-19 CNS,> 100000 nM
same,GI50,SNB-75 CNS,1400 nM
same,TGI,SNB-75 CNS,4860 nM
same,GI50,SR leukemia,1110 nM
same,TGI,SR leukemia,4530 nM
same,GI50,SW-620 colon,1510 nM
same,TGI,SW-620 colon,3550 nM
same,GI50,T-47D breast,1400 nM
same,TGI,T-47D breast,5370 nM
same,GI50,TK-10 renal,3980 nM
same,TGI,TK-10 renal,8500 nM
same,GI50,U251 CNS,1740 nM
same,TGI,U251 CNS,10300 nM
same,GI50,UACC-257 melanoma,963 nM
same,TGI,UACC-257 melanoma,3820 nM
same,GI50,UACC-62 melanoma,337 nM
same,TGI,UACC-62 melanoma,1410 nM
same,GI50,UO-31 renal,1980 nM
same,TGI,UO-31 renal,5960 nM
